For test [1], the target named is Glutamate receptor ionotropic, NMDA 1 (Rattus norvegicus, UniProt P35439).
Test [2] concerns the target Glutamate receptor ionotropic, kainate 1 (Rattus norvegicus, UniProt P22756).
The target in a further test is Glutamate receptor 3 (Rattus norvegicus, UniProt P19492).

SMILES strings stand for the structures. Bounds are passed on as bounds.

Glutamate receptor ionotropic, kainate 1, sequence (P22756 whole entry): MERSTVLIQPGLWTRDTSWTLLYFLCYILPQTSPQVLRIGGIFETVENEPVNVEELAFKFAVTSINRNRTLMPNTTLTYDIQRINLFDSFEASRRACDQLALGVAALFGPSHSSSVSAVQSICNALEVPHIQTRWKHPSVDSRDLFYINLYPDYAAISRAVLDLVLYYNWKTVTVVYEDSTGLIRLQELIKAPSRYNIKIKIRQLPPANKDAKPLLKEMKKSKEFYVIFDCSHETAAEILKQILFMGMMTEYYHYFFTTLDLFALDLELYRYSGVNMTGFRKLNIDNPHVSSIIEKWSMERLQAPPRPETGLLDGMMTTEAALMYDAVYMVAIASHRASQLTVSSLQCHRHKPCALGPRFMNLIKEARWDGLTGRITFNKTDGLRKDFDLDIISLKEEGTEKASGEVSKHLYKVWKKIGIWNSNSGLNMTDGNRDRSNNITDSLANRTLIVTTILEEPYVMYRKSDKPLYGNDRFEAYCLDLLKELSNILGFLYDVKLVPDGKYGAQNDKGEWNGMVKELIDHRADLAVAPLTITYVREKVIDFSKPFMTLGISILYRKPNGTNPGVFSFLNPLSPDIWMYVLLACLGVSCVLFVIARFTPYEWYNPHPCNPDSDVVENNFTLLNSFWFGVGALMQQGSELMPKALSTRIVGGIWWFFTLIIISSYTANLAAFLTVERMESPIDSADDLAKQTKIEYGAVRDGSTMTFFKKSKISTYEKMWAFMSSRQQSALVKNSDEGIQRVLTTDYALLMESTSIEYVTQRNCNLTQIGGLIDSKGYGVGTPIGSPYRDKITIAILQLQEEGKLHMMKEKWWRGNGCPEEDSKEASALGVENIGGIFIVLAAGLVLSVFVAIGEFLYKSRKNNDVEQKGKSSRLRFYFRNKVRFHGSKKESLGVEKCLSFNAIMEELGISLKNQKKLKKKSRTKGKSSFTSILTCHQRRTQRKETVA
Glutamate receptor 3, sequence (P19492 whole entry): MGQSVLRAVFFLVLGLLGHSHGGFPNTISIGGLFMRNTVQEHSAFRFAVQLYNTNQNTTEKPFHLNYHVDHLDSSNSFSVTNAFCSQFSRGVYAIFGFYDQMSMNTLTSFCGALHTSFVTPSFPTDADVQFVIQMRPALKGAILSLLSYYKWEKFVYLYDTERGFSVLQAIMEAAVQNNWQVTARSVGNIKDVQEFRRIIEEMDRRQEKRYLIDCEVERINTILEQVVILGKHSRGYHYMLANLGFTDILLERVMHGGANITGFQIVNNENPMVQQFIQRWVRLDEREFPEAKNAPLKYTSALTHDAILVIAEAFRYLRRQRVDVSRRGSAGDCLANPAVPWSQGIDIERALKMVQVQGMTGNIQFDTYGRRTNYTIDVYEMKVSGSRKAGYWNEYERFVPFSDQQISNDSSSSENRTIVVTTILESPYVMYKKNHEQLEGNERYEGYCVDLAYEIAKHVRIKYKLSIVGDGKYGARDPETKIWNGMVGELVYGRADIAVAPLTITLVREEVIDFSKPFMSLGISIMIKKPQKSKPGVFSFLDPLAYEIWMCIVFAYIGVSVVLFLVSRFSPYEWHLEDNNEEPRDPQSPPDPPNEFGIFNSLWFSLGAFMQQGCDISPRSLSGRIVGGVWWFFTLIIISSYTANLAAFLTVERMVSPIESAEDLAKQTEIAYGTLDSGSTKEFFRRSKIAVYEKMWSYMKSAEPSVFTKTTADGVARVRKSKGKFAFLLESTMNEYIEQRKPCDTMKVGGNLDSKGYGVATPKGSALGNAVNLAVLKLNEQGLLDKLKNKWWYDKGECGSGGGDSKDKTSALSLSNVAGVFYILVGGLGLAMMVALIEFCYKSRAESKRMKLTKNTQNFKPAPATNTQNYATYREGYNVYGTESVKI

Molecule `CN[C@H](CC(=O)O)C(=O)O` [NMDA] showed a Ki in test [1] of 5.5 µM.

Consider `N[C@H](C(=O)O)[C@H](OC(=O)c1ccccc1)C(=O)O` (racemic) [DL-TBzOAsp], for which the Ki (in test [2]; in test [1]; at Glutamate receptor 3) was greater than 10 µM throughout.

In the case of `N[C@H](C(=O)O)[C@H](OCc1ccccc1)C(=O)O` [DL-TBOA], the Ki (in test [2]; in test [1]; at Glutamate receptor 3) was greater than 10 µM in each case.

`N[C@H](C(=O)O)[C@H]1C[C@H]1C(=O)O` [L-CCG-IV] registered a Ki in test [1] of 0.008 µM.

For `O=C(O)[C@H]1CN[C@H](C(=O)O)C1` [t-PDC], the Ki (in test [2]; in test [1]; at Glutamate receptor 3) was greater than 10 µM in each case.

In the case of `CC(C)[C@H]1CN[C@H](C(=O)O)[C@H]1CC(=O)O` [dihydrokainic acid], the Ki in test [2] was 6 µM; in test [1] it was greater than 10 µM; at Glutamate receptor 3, greater than 10 µM.

For `N[C@H](C(=O)O)[C@H](O)C(=O)O` (racemic) [DL-THA], the Ki (in test [2]; in test [1]; at Glutamate receptor 3) was greater than 10 µM each time.

The values above are taken from BindingDB's records for doi:10.1124/mol.53.2.195 (Suntory Institute For Bioorganic Research, 1998).
